According to PMC3409241, “Probing Cocaine-Antibody Interactions in Buffer and Human Serum” (PLoS ONE, 2012):
“Also recorded” adds a separate entry of the source. Counter-ions that a name gives are not always drawn. Like-named read-outs stand apart in the source and are kept apart here.

Assays:
mAb08 [1] = assay: SPR competitive inhibition of mAb08 binding to immobilized BSA-SNC; parameters: species or system mouse; settings: 50 nM mAb08 mixed with increasing drug concentrations
[2] = tested on: RR6 enriched polyclonal antibodies; assay: SPR competitive inhibition of RR6 enriched polyclonal antibody binding to immobilized BSA-SNC; parameters: species or system mouse
Procedure: (§1) Data was collected using a medium collection rate at 25°C. The instrument was primed a few times using the running buffer before injecting the concentration series. For every binding cycle, the antibody samples were injected for 1.5 minutes at 50 µl/min flow rate and dissociation was monitored for 5 minutes. The bound antibody was releasedwith two 15 µl injections of pH 1.5 glycine buffer. The kinetic constants of binding were obtained using a 1∶1 Langmuir binding model. The raw data sets were analyzed using BIAevaluation (version 3.2) provided by BIAcore Inc. (Uppsala, Sweden). After the subtraction of background responses from the control flow cells, the association and dissociation phases were globally fitted for all the sensorgrams simultaneously, omitting any noisy data at the beginning and end of the analyte injection.

f-mAb08 = assay: MST of fluorescently labeled f-mAb08 binding to drugs; parameters: species or system mouse; settings: 25°C
Procedure: The fluorescent labeling was performed with a reactive RED dye (NT-647) following the manufacturer’s protocol (Nanotemper, Germany). […] Free dye was removed by purification on a Sephadex G-25 column provided with the kit. MST assays were carried out as described in Jerabek-Willesmsen et al.. Serial dilutions of unlabeled drug or antibody samples were mixed with 20 nM of NT-647-labeled proteins in PBS buffer (25 mM phosphate pH 7.4, 150 mM NaCl, 0.05% Tween-20) and incubated for 20 minutes. About 10 µl of sample was loaded into standard monolith NT capillaries provided by the manufacturer and assays were performed in a Nanotemper Monolith NT.015T. The Red fluorescence was exited using a light-emitting diode, and its emission was recorded at a focused location of capillary. Using another infrared laser diode a microscopic temperature gradient was created at the same location and the fluorescence depletion was measured. By plotting the concentrations of unlabeled binding partner with the changes in fluorescent thermophoresis signal, K D values were determined using the Nanotemper analysis software. The overlay diagram was made by normalizing the data to fraction bound.

[3] = cited from earlier work
mAb08 [4] = assay: ITC titration of drug into mAb08; assay type: binding, mouse; settings: 25°C
Procedure: (§2) ITC experiments were performed using an ITC-200 micro calorimeter from MicroCal (Northampton, MA, USA). Samples were dialyzed against PBS buffer and degassed prior to loading into the ITC cell. The drug samples were prepared in the same buffer to avoid buffer mismatch. Titrations were performed at 25°C by injecting consecutive aliquots (2 µl) of 45 µM drug into the ITC cell (volume of 200 µl) containing 3 µM antibody at 500 rpm stirring rate. Intervals between injections were set to be 150 sec in order to allow the heat from each injection to return to the baseline. Heats of dilution control experiments were performed by titrating ligand into buffer. The heats associated with the control titration were subtraced from the raw binding data prior to fitting. The data were fitted assuming that the antibody binding sites are identical using a single set binding model included in the Origin 7.0 software provided by the manufacturer. ITC directly measures the change in heat associated with two components going from the free to the bound state. Thus the observed molar change in enthalpy (ΔHobs) can be determined.
The binding isotherms, which is the incremental heat release as a function of complex formation is shown in the lower panel of Fig. 3. The solid line corresponds to the fit to a binding model to yield the equilibrium binding constant, K D, and the binding parameters, n and ΔH obs. The results of data analysis are shown in Table 1 along with the derived parameters, ΔGcal and ΔScal.
(§3) The thermodynamic parameters associated with the binding of cocaine to human serum and human serum albumin were investigated using ITC. We titrated 45 µM of cocaine to 20% of control human serum (no anti-cocaine antibodies) dialyzed against PBS (Figure 4A).

[5] = target: enriched polyclonal antibodies purified from mouse or patient serum; assay: SPR competitive inhibition of enriched polyclonal antibody binding to immobilized BSA-SNC
Procedure: as §1

20% human serum = assay: ITC titration of cocaine into 20% control human serum; assay type: binding
Procedure: as §2, §3

Clone 402 = assay: ITC titration of cocaine into Clone 402 antibody; assay type: binding
Procedure: as §2

human serum albumin = human serum albumin (Homo sapiens, UniProt P02768); assay: ITC titration of cocaine into human serum albumin; assay type: binding; settings: 5 µM HSA against 45 µM cocaine in PBS
Chain of human serum albumin (P02768 25-609): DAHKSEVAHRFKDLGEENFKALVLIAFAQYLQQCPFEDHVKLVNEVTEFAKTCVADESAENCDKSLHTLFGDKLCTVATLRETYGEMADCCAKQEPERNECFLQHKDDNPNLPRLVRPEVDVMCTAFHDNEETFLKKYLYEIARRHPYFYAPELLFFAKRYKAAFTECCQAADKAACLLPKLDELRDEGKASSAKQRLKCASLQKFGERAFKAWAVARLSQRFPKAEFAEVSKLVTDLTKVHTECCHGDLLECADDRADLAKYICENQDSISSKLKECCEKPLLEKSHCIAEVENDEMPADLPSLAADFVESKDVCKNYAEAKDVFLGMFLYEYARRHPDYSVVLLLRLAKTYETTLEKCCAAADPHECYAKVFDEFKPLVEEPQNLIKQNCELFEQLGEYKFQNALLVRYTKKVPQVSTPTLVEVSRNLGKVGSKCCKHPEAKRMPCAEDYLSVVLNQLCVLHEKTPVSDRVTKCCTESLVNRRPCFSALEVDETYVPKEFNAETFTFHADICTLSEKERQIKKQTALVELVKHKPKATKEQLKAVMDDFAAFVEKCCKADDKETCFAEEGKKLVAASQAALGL
Procedure: as §2, §3

nonspecific human IgG = assay: ITC of cocaine in presence of nonspecific human IgG; assay type: binding; settings: 7 µM non-specific human IgG with mAb08
Procedure: as §2, §3

cAMP kinase = tested on: cAMP kinase; parameters: method as in PMID 20981028; settings: in presence of 30% human serum; cited from earlier work
[6] = 20 nM f-mAb08, 20% control human serum, read-out: K D ^2 (nM) (Serum%)
[7] = 20 nM f-mAb08, PBS (phosphate buffer), read-out: K D ^1 (nM) Enriched IgG

CN1[C@H]2CC[C@@H]1[C@@H](C(=O)O)[C@@H](OC(=O)c1ccccc1)C2 [Benzoylecgonine]
IC50 (mAb08 [1]): 123 nM
IC50 (mAb08 [1]; listed as BE): ~123 nM
inhibition of RR6 enriched fraction binding to BSA-SNC [2]: did not show any significant inhibition
Kd (f-mAb08; [6]): 98 nM
Kd (f-mAb08; [7]): 23.7 nM
elimination half-life [3]: 6 to 8 h
Kd (mAb08 [4]; PBS pH 7.4, sample mAb08): 18.6 ± 48.7 nM
ΔGcal (mAb08 [4]; PBS pH 7.4, sample mAb08): -10.5 kcal/mol
ΔHobs (mAb08 [4]; PBS pH 7.4, sample mAb08): -21.66 ± 0.61 kcal/mol
ΔScal (mAb08 [4]; PBS pH 7.4, sample mAb08): −37.3 cal.mol^−1K^−1

CCOC(=O)[C@@H]1C2CCC(C[C@@H]1OC(=O)c1ccccc1)N2C (stereo partly drawn) [Cocaethylene]
Kd (f-mAb08; [6]): 169 nM
Kd (f-mAb08; [7]): 47 nM
Kd (mAb08 [4]; PBS pH 7.4, sample mAb08): 34.4 nM
ΔGcal (mAb08 [4]; PBS pH 7.4, sample mAb08): -10.2 kcal/mol
ΔHobs (mAb08 [4]; PBS pH 7.4, sample mAb08): -21.16 ± 0.48 kcal/mol
ΔScal (mAb08 [4]; PBS pH 7.4, sample mAb08): −36.8 cal.mol^−1K^−1

COC(=O)[C@H]1[C@@H](OC(=O)c2ccccc2)C[C@@H]2CC[C@H]1N2C [Cocaine, Cocaine hydrochloride]
IC50 [5]: 100 to 500 nM
IC50 (mAb08 [1]): ~100 nM
IC50 (mAb08 [1]; listed as cocaine): ~104 nM
Kd (20% human serum; 45 µM cocaine to 20% control human serum): ~2000 nM
Kd (20% human serum; 25°C, sample 20% Serum): 2000 nM
ΔGcal (20% human serum; 25°C, sample 20% Serum): -7.8 kcal/mol
ΔHobs (20% human serum; 25°C, sample 20% Serum): -21.82 ± 3.16 kcal/mol
ΔScal (20% human serum; 25°C, sample 20% Serum): −47.1 cal.mol^−1K^−1
ΔGcal (Clone 402; ITC, 25°C, sample Clone 402): -6.8 kcal/mol
ΔHobs (Clone 402; ITC, 25°C, sample Clone 402): -26.4 ± 1.93 kcal/mol
ΔScal (Clone 402; ITC, 25°C, sample Clone 402): −65.6 cal.mol^−1K^−1
Kd (Clone 402; ITC, 25°C, sample Clone 402, read-out: K D): 10 µM
Kd (Clone 402; clone 402 (Arista Biologicals), read-out: affinity to cocaine): ~10 µM
binding to human serum albumin (human serum albumin): very little interaction; also recorded: no detectable binding; also recorded: does not bind strongly
binding to nonspecific human IgG (nonspecific human IgG): very little interaction; also recorded: absence of non-specific cocaine binding
Kd (f-mAb08; [6]): 105 nM
Kd (f-mAb08; 20 nM f-mAb08, 50% control human serum, listed as cocaine, read-out: K D ^2 (nM) (Serum%)): ~100 nM
Kd (f-mAb08; 20 nM f-mAb08, 50% control human serum, read-out: K D ^2 (nM) (Serum%)): 128 nM
Kd (f-mAb08; [7]): 7.8 nM
elimination half-life ([3]; depends on route of administration): 1 to 1.5 h
Kd (mAb08 [4]; PBS pH 7.4, sample mAb08): 2.5 ± 6.8 nM
ΔGcal (mAb08 [4]; PBS pH 7.4, sample mAb08): -11.7 kcal/mol
ΔHobs (mAb08 [4]; PBS pH 7.4, sample mAb08): -28.08 ± 0.37 kcal/mol
ΔScal (mAb08 [4]; PBS pH 7.4, sample mAb08): −54.8 cal.mol^−1K^−1
Kd (mAb08 [4]; sample mAb08+7 µM hIgG): 4 ± 10.5 nM
ΔGcal (mAb08 [4]; sample mAb08+7 µM hIgG): -11.5 kcal/mol
ΔHobs (mAb08 [4]; sample mAb08+7 µM hIgG): -28.58 ± 0.35 kcal/mol
ΔScal (mAb08 [4]; sample mAb08+7 µM hIgG): −57.4 cal.mol^−1K^−1
ΔHobs (mAb08 [4]; sample mAb08+7 µM hIgG, listed as cocaine): -28 kcal/mol
Kd (mAb08 [4]; sample mAb08+20% Serum): 113 nM
ΔGcal (mAb08 [4]; sample mAb08+20% Serum): -9.5 kcal/mol
ΔHobs (mAb08 [4]; sample mAb08+20% Serum): -33.19 ± 0.61 kcal/mol
ΔScal (mAb08 [4]; sample mAb08+20% Serum): −79.5 cal.mol^−1K^−1
Kd (mAb08 [4]; sample mAb08+20% Serum, listed as cocaine): ~113 nM

O=c1c(O)c(-c2ccc(O)c(O)c2)oc2cc(O)cc(O)c12 [quercetin]
fold decrease in affinity (cAMP kinase): 400 fold
